Assay results: ChEMBL document CHEMBL1201862, “PubChem BioAssay data set” (2004)
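Method: 48-hour compound exposure of cells in 96-well plates, five concentrations, linear interpolation of endpoints. GI50 = concentration required for 50% inhibition of growth.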 Active and inactive are the calls of the source. No stated cut-off is given here; in the data, active = GI50 up to about 1.1 µM and inactive = higher.

Legend:
Test in all cases: inhibition of tumour cell growth, NCI panel, 48 h
SW-620 = system: SW-620
A549 = system: A549
ACHN = system: ACHN
SNB-75 = system: SNB-75
OVCAR-5 = system: OVCAR-5
HT-29 = system: HT-29
IGROV-1 = system: IGROV-1
SNB-19 = system: SNB-19
KM-20L2 = system: KM-20L2
DLD-1 = system: DLD-1
SK-MEL-2 = system: SK-MEL-2
SK-OV-3 = system: SK-OV-3
SK-MEL-28 = system: SK-MEL-28
LOX IMVI = system: LOX IMVI
HCC 2998 = system: HCC 2998
786-0 = system: 786-0
SF-268 = system: SF-268
DMS-114 = system: DMS-114
OVCAR-8 = system: OVCAR-8
OVCAR-3 = system: OVCAR-3
EKVX = system: EKVX
NCI-H23 = system: NCI-H23
TK-10 = system: TK-10
SNB-78 = system: SNB-78
SF-295 = system: SF-295
M19-MEL = system: M19-MEL
UO-31 = system: UO-31
NCI-H522 = system: NCI-H522
NCI-H460 = system: NCI-H460
RXF 393 = system: RXF 393
HCT-15 = system: HCT-15
MOLT-4 = system: MOLT-4
SN12C = system: SN12C
HOP-62 = system: HOP-62
UACC-62 = system: UACC-62
HOP-18 = system: HOP-18
NCI-H226 = system: NCI-H226
Malme-3M = system: Malme-3M
RPMI-8226 = system: RPMI-8226
XF498 = system: XF498
KM12 = system: KM12
SK-MEL-5 = system: SK-MEL-5
HCT-116 = system: HCT-116
M14 = system: M14
LXFL 529 = system: LXFL 529
UACC-257 = system: UACC-257
U-251 = system: U-251
COLO 205 = system: COLO 205
DMS-273 = system: DMS-273
HOP-92 = system: HOP-92
SR = system: SR
SF-539 = system: SF-539
A498 = system: A498
CCRF-CEM = system: CCRF-CEM
HL-60 = system: HL-60
Hs-578T = system: Hs-578T
BT-549 = system: BT-549
MDA-N = system: MDA-N
NCI/ADR-RES = system: NCI/ADR-RES
MDA-MB-435 = system: MDA-MB-435
PC-3 = system: PC-3
OVCAR-4 = system: OVCAR-4
MDA-MB-231 = system: MDA-MB-231
DU-145 = system: DU-145
K562 = system: K562
T47D = system: T47D
MCF7 = system: MCF7
CAKI-1 = system: CAKI-1

## COc1ccc(-c2ccccc2)c(N/N=C2\CCCNC2=O)c1
SW-620
  GI50: > 100 µM (inactive)
A549
  GI50: 12.9 µM (inactive)
ACHN
  GI50: > 100 µM (inactive)
SNB-75
  GI50: 32.8 µM (inactive)
OVCAR-5
  GI50: > 100 µM (inactive)
HT-29
  GI50: > 100 µM (inactive)
IGROV-1
  GI50: > 100 µM (inactive)
SNB-19
  GI50: 81.7 µM (inactive)
KM-20L2
  GI50: > 100 µM (inactive)
DLD-1
  GI50: > 100 µM (inactive)
SK-MEL-2
  GI50: > 100 µM (inactive)
SK-OV-3
  GI50: 96.2 µM (inactive)
SK-MEL-28
  GI50: > 100 µM (inactive)
LOX IMVI
  GI50: > 100 µM (inactive)
HCC 2998
  GI50: > 100 µM (inactive)
786-0
  GI50: 85.7 µM (inactive)
SF-268
  GI50: 43.5 µM (inactive)
DMS-114
  GI50: > 100 µM (inactive)
OVCAR-8
  GI50: > 100 µM (inactive)
OVCAR-3
  GI50: > 100 µM (inactive)
EKVX
  GI50: > 100 µM (inactive)
NCI-H23
  GI50: > 100 µM (inactive)
TK-10
  GI50: > 100 µM (inactive)
SNB-78
  GI50: 93.5 µM (inactive)
SF-295
  GI50: > 100 µM (inactive)
M19-MEL
  GI50: > 100 µM (inactive)
UO-31
  GI50: > 100 µM (inactive)
NCI-H522
  GI50: > 100 µM (inactive)
NCI-H460
  GI50: > 100 µM (inactive)
RXF 393
  GI50: 11 µM (inactive)
HCT-15
  GI50: > 100 µM
MOLT-4
  GI50: > 100 µM (inactive)
SN12C
  GI50: > 100 µM (inactive)
HOP-62
  GI50: 19.6 µM (inactive)
UACC-62
  GI50: 49 µM (inactive)
HOP-18
  GI50: > 100 µM (inactive)
NCI-H226
  GI50: > 100 µM (inactive)
Malme-3M
  GI50: > 100 µM (inactive)
RPMI-8226
  GI50: > 100 µM (inactive)
XF498
  GI50: 18.7 µM (inactive)
KM12
  GI50: > 100 µM (inactive)
SK-MEL-5
  GI50: 28.2 µM (inactive)
HCT-116
  GI50: 13.1 µM (inactive)
M14
  GI50: > 100 µM (inactive)
LXFL 529
  GI50: > 100 µM (inactive)
UACC-257
  GI50: > 100 µM (inactive)
U-251
  GI50: > 100 µM (inactive)
COLO 205
  GI50: > 100 µM (inactive)
DMS-273
  GI50: > 100 µM (inactive)
HOP-92
  GI50: > 100 µM (inactive)
SR
  GI50: 3.55 µM (inactive)
SF-539
  GI50: 50.7 µM (inactive)

## O=c1[nH]c(=O)n([C@H]2CCCO2)cc1F
SW-620
  GI50: 887 µM (inactive)
A549
  GI50: 446 µM (inactive)
A498
  GI50: 501 µM (inactive)
ACHN
  GI50: 977 µM (inactive)
CCRF-CEM
  GI50: 982 µM (inactive)
HL-60
  GI50: 644 µM (inactive)
SNB-75
  GI50: 560 µM (inactive)
OVCAR-5
  GI50: 953 µM (inactive)
HT-29
  GI50: 649 µM (inactive)
IGROV-1
  GI50: 975 µM (inactive)
SNB-19
  GI50: 3920 µM (inactive)
KM-20L2
  GI50: 824 µM (inactive)
Hs-578T
  GI50: 3230 µM (inactive)
DLD-1
  GI50: 615 µM (inactive)
BT-549
  GI50: 4000 µM (inactive)
SK-MEL-2
  GI50: 719 µM (inactive)
SK-OV-3
  GI50: 681 µM (inactive)
SK-MEL-28
  GI50: 830 µM (inactive)
MDA-N
  GI50: 1200 µM (inactive)
LOX IMVI
  GI50: 685 µM (inactive)
NCI/ADR-RES
  GI50: 923 µM (inactive)
HCC 2998
  GI50: 89.7 µM (inactive)
786-0
  GI50: 984 µM (inactive)
SF-268
  GI50: 986 µM (inactive)
DMS-114
  GI50: 673 µM (inactive)
OVCAR-8
  GI50: 655 µM (inactive)
OVCAR-3
  GI50: 684 µM (inactive)
EKVX
  GI50: 393 µM (inactive)
NCI-H23
  GI50: 759 µM (inactive)
TK-10
  GI50: 764 µM (inactive)
MDA-MB-435
  GI50: 615 µM (inactive)
PC-3
  GI50: 2510 µM (inactive)
SNB-78
  GI50: > 1000 µM (inactive)
OVCAR-4
  GI50: 2610 µM (inactive)
SF-295
  GI50: 918 µM (inactive)
MDA-MB-231
  GI50: > 2720 µM (inactive)
DU-145
  GI50: 748 µM (inactive)
M19-MEL
  GI50: 545 µM (inactive)
UO-31
  GI50: 869 µM (inactive)
NCI-H522
  GI50: 769 µM (inactive)
NCI-H460
  GI50: 146 µM (inactive)
RXF 393
  GI50: 769 µM (inactive)
HCT-15
  GI50: 678 µM
K562
  GI50: 968 µM (inactive)
T47D
  GI50: > 465 µM (inactive)
MOLT-4
  GI50: 830 µM (inactive)
SN12C
  GI50: 838 µM (inactive)
MCF7
  GI50: 467 µM (inactive)
HOP-62
  GI50: 547 µM (inactive)
UACC-62
  GI50: 569 µM (inactive)
HOP-18
  GI50: 692 µM (inactive)
NCI-H226
  GI50: 625 µM (inactive)
Malme-3M
  GI50: 493 µM (inactive)
RPMI-8226
  GI50: 385 µM (inactive)
XF498
  GI50: 762 µM (inactive)
CAKI-1
  GI50: 828 µM (inactive)
KM12
  GI50: 813 µM (inactive)
SK-MEL-5
  GI50: 845 µM (inactive)
HCT-116
  GI50: 406 µM (inactive)
M14
  GI50: 740 µM (inactive)
UACC-257
  GI50: 951 µM (inactive)
U-251
  GI50: 957 µM (inactive)
COLO 205
  GI50: 673 µM (inactive)
DMS-273
  GI50: 561 µM (inactive)
HOP-92
  GI50: > 3120 µM (inactive)
SR
  GI50: 337 µM (inactive)
SF-539
  GI50: 262 µM (inactive)
